According to patent US10093630B2, “Pyrazole compounds and methods of making and using same” (ABIDE THERAPEUTICS, INC., priority 2014, dated 2018):

Key:
Assay in all cases: In vitro competitive activity-based protein profiling (gel-based, FP-Rh or HT-01 probe)
Format in all cases: biochemical
ABHD6 = biological target: T1, ABHD6 (Mus musculus, UniProt Q8R2Y0); conditions: for inhibition at 1 µM: 1 μM inhibitor, read-out: % Inhibition at 1 μM, C = ABHD6; for inhibition at 10 µM: 10 μM inhibitor, read-out: % Inhibition at 10 μM, C = ABHD6; for IC50: mouse brain membrane fraction or cell lysates, 30 min preincubation at 37° C., read-out: Mouse (IC50 value, nM) ABHD6
T1 construct: Proteomes (mouse brain membrane fraction or cell lysates); from tissue; host or cells: mouse brain membrane fraction (or cell lysates, not specified)
T1 sequence (Q8R2Y0 1-336): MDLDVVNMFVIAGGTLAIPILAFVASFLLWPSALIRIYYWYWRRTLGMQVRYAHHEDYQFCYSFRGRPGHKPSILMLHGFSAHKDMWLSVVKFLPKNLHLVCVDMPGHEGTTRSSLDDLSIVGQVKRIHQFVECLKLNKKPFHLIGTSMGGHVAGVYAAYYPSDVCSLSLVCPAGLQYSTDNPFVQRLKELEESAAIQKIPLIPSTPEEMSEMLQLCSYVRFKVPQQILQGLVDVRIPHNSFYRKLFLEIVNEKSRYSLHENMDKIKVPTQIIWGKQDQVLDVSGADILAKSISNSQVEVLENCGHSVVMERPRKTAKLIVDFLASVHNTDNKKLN
Experimental: (§1) In Vitro Competitive Activity-Based Protein Profiling.
(§2) Proteomes (mouse brain membrane fraction or cell lysates) (50 μL, 1.0 mg/mL total protein concentration) were preincubated with varying concentrations of inhibitors at 37° C. After 30 min, FP-Rh or HT-01 ([…], 50 μM in DMSO) was added and the mixture was incubated for another 30 min at 37° C. Reactions were quenched with SDS loading buffer (15 μL—4×) and run on SDS-PAGE. Following gel imaging, serine hydrolase activity was determined by measuring fluorescent intensity of gel bands corresponding to MAGL, ABHD6, FAAH, and PLA2G7 using ImageJ 1.43u software.

MAGL = biological target: T2, MAGL (Mus musculus, UniProt O35678); conditions: for inhibition at 1 µM: 1 μM inhibitor; for inhibition at 10 µM: 10 μM inhibitor; for IC50: mouse brain membrane fraction or cell lysates, 30 min preincubation at 37° C., read-out: Mouse (IC50 value, nM) MAGL
T2 construct: Proteomes (mouse brain membrane fraction or cell lysates); from tissue; host or cells: mouse brain membrane fraction (or cell lysates, not specified)
T2 sequence (O35678 1-303): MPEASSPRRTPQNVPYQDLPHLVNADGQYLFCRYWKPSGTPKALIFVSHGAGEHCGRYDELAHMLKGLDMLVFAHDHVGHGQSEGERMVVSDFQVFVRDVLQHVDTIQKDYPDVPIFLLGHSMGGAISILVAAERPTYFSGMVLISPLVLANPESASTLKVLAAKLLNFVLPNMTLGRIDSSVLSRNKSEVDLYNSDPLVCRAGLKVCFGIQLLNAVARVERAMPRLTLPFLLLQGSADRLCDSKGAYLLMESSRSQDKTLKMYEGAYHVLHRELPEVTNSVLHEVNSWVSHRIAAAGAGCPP
Experimental: as §1, §2

PLA2G7 = biological target: T3, PLA2G7 (Mus musculus, UniProt Q60963); conditions: for inhibition at 1 µM: 1 μM inhibitor, read-out: % Inhibition at 1 μM, D = PLA2G7; for inhibition at 10 µM: 10 μM inhibitor, read-out: % Inhibition at 10 μM, D = PLA2G7; for IC50: mouse brain membrane fraction or cell lysates, 30 min preincubation at 37° C.
T3 construct: Proteomes (mouse brain membrane fraction or cell lysates); from tissue; host or cells: mouse brain membrane fraction (or cell lysates, not specified)
T3 sequence (Q60963 22-440): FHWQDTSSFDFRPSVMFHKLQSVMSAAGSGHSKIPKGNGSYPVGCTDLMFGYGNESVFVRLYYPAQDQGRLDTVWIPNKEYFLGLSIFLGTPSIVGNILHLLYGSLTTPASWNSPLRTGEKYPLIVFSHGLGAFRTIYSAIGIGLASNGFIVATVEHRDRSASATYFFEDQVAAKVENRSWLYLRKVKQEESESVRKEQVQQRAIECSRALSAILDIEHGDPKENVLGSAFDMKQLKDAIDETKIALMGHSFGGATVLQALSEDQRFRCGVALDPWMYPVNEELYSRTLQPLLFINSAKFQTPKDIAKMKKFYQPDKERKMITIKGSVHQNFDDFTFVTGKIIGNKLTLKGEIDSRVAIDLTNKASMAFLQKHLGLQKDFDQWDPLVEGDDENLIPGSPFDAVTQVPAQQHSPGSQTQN
Experimental: as §1, §2

FAAH = biological target: T4, FAAH (Mus musculus, UniProt O08914); conditions: for inhibition at 1 µM: 1 μM inhibitor, read-out: % Inhibition at 1 μM, B = FAAH; for inhibition at 10 µM: 10 μM inhibitor, read-out: % Inhibition at 10 μM, B = FAAH; for IC50: mouse brain membrane fraction or cell lysates, 30 min preincubation at 37° C., read-out: Mouse (IC50 value, nM) FAAH
T4 construct: Proteomes (mouse brain membrane fraction or cell lysates); from tissue; host or cells: mouse brain membrane fraction (or cell lysates, not specified)
T4 sequence (O08914 1-579): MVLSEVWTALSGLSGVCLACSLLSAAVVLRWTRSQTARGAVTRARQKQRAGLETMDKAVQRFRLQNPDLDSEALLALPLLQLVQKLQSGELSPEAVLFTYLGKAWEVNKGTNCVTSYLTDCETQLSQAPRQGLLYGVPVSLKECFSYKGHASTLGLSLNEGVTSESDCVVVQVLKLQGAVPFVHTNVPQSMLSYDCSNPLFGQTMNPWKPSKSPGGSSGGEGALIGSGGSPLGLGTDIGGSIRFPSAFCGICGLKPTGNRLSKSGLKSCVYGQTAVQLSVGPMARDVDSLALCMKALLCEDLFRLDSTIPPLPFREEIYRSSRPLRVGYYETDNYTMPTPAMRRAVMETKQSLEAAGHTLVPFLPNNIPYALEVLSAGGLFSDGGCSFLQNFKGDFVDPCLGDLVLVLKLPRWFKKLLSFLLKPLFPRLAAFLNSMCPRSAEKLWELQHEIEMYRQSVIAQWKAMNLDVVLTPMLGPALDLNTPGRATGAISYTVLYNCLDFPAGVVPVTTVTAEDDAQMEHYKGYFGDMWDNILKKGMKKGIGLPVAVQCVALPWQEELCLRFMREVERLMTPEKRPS
Experimental: as §1, §2

Compound | inhibition at 1 µM (ABHD6) [%] | inhibition at 10 µM (ABHD6) [%] | inhibition at 1 µM (MAGL) [%] | inhibition at 10 µM (MAGL) [%] | inhibition at 1 µM (PLA2G7) [%] | inhibition at 10 µM (PLA2G7) [%] | inhibition at 1 µM (FAAH) [%] | inhibition at 10 µM (FAAH) [%] | IC50 (ABHD6) [nM] | IC50 (MAGL) [nM] | IC50 (PLA2G7) [nM] | IC50 (FAAH) [nM]
O=C(c1cnn(C(=O)N2CCN(Cc3nccs3)CC2)c1)N1CCCCC1 [Example 74, Piperidin-1-yl(1-(4-(thiazol-2-ylmethyl)piperazine-1-carbonyl)-1H-pyrazol-4-yl)methanone] | > 75 | > 75 | < 25 | < 25 | > 75 | > 75 | < 25 | > 75 | – | – | – | –
Cc1cc(-c2ccccc2)ccc1CN1CCN(C(=O)n2cc(Cl)cn2)CC1 [Example 137, (4-Chloro-1H-pyrazol-1-yl)(4-((3-methylbiphenyl-4-yl)methyl)piperazin-1-yl)methanone] | > 75 | > 75 | > 75 | > 75 | < 25 | 25 to 75 | > 75 | > 75 | 100 to 1000 | < 100 | > 1000 | < 100
O=C(N1CCN(C(c2ccc(Cl)cc2)c2ccc(Cl)cc2)CC1)n1cc(-c2ccccc2C(F)(F)F)cn1 [Example 123, (4-(Bis(4-chlorophenyl)methyl)piperazin-1-yl)(4-(2-(trifluoromethyl)phenyl)-1H-pyrazol-1-yl)methanone] | 25 to 75 | > 75 | – | 25 to 75 | < 25 | 25 to 75 | – | < 25 | – | – | – | –
CC(=O)N1CCCN(C(=O)n2cc(C#N)cn2)CC1 [Example 177, 1-(4-Acetyl-1,4-diazepane-1-carbonyl)-1H-pyrazole-4-carbonitrile] | < 25 | > 75 | < 25 | < 25 | < 25 | > 75 | < 25 | > 75 | – | – | – | –
O=C(NCc1ccc2ccccc2c1)n1cccn1 [Example 43, N-(Naphthalen-2-ylmethyl)-1H-pyrazole-1-carboxamide] | < 25 | < 25 | < 25 | 25 to 75 | < 25 | < 25 | < 25 | > 75 | – | – | – | –

Continued, values first:

inhibition at 1 µM (ABHD6) [%] | inhibition at 10 µM (ABHD6) [%] | inhibition at 1 µM (MAGL) [%] | inhibition at 10 µM (MAGL) [%] | inhibition at 1 µM (PLA2G7) [%] | inhibition at 10 µM (PLA2G7) [%] | inhibition at 1 µM (FAAH) [%] | inhibition at 10 µM (FAAH) [%] | IC50 (ABHD6) [nM] | IC50 (MAGL) [nM] | IC50 (PLA2G7) [nM] | IC50 (FAAH) [nM] | Compound
> 75 | > 75 | > 75 | > 75 | > 75 | > 75 | > 75 | > 75 | – | – | – | – | Cc1ccc(N2CCN(C(=O)n3cc(C(F)(F)F)cn3)CC2)cc1 [Example 232, (4-p-Tolylpiperazin-1-yl)(4-(trifluoromethyl)-1H-pyrazol-1-yl)methanone]
> 75 | > 75 | > 75 | > 75 | 25 to 75 | > 75 | > 75 | > 75 | 100 to 1000 | < 100 | < 100 | > 1000 | Cc1cc(N2CCN(C(=O)n3cc(C(F)(F)F)cn3)CC2)c2ccccc2n1 [Example 210, (4-(2-Methylquinolin-4-yl)piperazin-1-yl)(4-(trifluoromethyl)-1H-pyrazol-1-yl)methanone]
> 75 | – | > 75 | – | < 25 | – | > 75 | – | 100 to 1000 | < 100 | 100 to 1000 | 100 to 1000 | O=C(N1CCN(Cc2ccccc2Cl)CC1)n1cc(Cl)cn1 [Example 224, (4-Chloro-1H-pyrazol-1-yl)(4-(2-chlorobenzyl)piperazin-1-yl)methanone]
